{"source": "patent US10918753B2", "about": "“Use of ozone to control bioburden in precipitated calcium carbonate slurry (PCC)” (Colgate-Palmolive Company, priority 2014, dated 2021)", "system": "gram negative and gram positive bacilli", "test": "Ozone treatment of precipitated calcium carbonate slurry; bioburden / log reduction of bacteria at sampling points", "format": "cell-based", "protocol": "A precipitated calcium carbonate slurry was prepared as shown FIG. 1. At the precipitation phase of the “Region of High Microbial Growth”, FIG. 1), the slurry was contaminated with gram negative and gram positive bacilli. The shiny was then continuously transferred from a precipitation tank (not shown) to a neutralization tank (100). Upon entry into the neutralization tank, the slurry was neutralized using carbon dioxide. A sample was collected from the neutralization tank to assess the initial bioburden of the slurry (3.6×10^6 CFU/g). After neutralization, 3.5 or 5 ppm (depending on trial) of ozone was injected into the slurry after circulation through the pump (120) (FIG. 3). […] The pH of the slurry in the neutralization tank ranged from 6.9 to 8.3 and the temperature ranged from 24° C. to 46° C.\nThe degree of log reduction in bacteria was sampled at sampling point 1 (160) (FIG. 3) at time zero and every five minutes up to 40 minutes. As depicted in Table 1, below, a 1-2 log reduction of bacteria was observed after 40 minutes under recirculation.\nA precipitated calcium carbonate slurry was prepared according to Example 1. Five trials were conducted. The ozone was injected as described in Example 1 at a concentration ranging from 5 ppm to 25 ppm. Samples were taken after 40 minutes of recirculation, 40 minutes after ozone contact with the slurry in the neutralization tank (100) or immediately after the slurry passed through the static mixer (140) as shown in FIG. 3. […] This difference is log reduction may be attributable to the mixing of ozone-treated slurry in the neutralization tank (100) with the non-treated slurry from the precipitation tank (not shown).\nThe sampling variability was confirmed in further trials by assessing the ozone concentration before and after ozone treatment and assessing the bioburden from samples taken at sampling point 1 (160) or sampling point 2 (150). In one trial, an initial bioburden (without ozone) of a sample collected from the slurry tank was 3.6×10^6 CFU/g. After an ozone injection at a 5 ppm concentration, the amount of bioburden was reduced to 1.7×10^4 CFU/g after 40 minutes recirculation. […] However, when a sample in the third trial was collected and tested at sampling point 2 (150) a few seconds after ozone injection, the bioburden was less than 10 CFU/g. Accordingly, the data support that the disclosed process using ozone treatment is capable of reducing an initial bioburden by 5 log, i.e., 10^6 to 10^1 CFU/g.", "data": [{"smiles": "O=[O+][O-]", "note": "[ozone]", "values": [{"measurement": "log reduction of bacteria", "setting": "Example 1 summary, 3.5 or 5 ppm ozone, sampling point 1, after 40 minutes under recirculation", "value": "1-2 log"}, {"measurement": "Log Reduction", "setting": "Example 1 trial T1, sampling point 1, ozone 5.0 ppm, 12% PCC, pH 8.3, 24 °C, 40 minutes under recirculation", "value": 2, "unit": "log"}, {"measurement": "Log Reduction", "setting": "Example 1 trial T2, sampling point 1, ozone 5.0 ppm, 28% PCC, pH 7.2, 33 °C, 40 minutes under recirculation", "value": 2, "unit": "log"}, {"measurement": "Log Reduction", "setting": "Example 1 trial T3, sampling point 1, ozone 3.5 ppm, 39% PCC, pH 6.9, 33 °C, 40 minutes under recirculation", "value": 1, "unit": "log"}, {"measurement": "Log Reduction", "setting": "Example 1 trial T4, sampling point 1, ozone 5.0 ppm, 39% PCC, pH 6.9, 46 °C, 40 minutes under recirculation", "value": 2, "unit": "log"}, {"measurement": "log reduction of bacteria", "setting": "Example 2 summary, higher ozone injection (25 ppm)", "value": "4-5 log"}, {"measurement": "log reduction of bacteria", "setting": "Example 2 summary, lower concentrations of injected ozone", "value": "1-2 log"}, {"measurement": "Log Reduction", "setting": "Example 2 trial T1, sampling point 1, ozone 7.5 ppm, Recirculation, pH 8.3, 40 minutes", "value": 2, "unit": "log"}, {"measurement": "Log Reduction", "setting": "Example 2 trial T2, sampling point 1, ozone 7.5 ppm, Recirculation, pH 7.2, +40 minutes", "value": "+2 log"}, {"measurement": "Log Reduction", "setting": "Example 2 trial T3, sampling point 1, ozone 5 ppm, Within Tank, pH 6.9, 40 minutes", "value": 1, "unit": "log"}, {"measurement": "Log Reduction", "setting": "Example 2 trial T4, sampling point 1, ozone 25 ppm, Recirculation, pH 6.9, 40 minutes", "value": 2, "unit": "log"}, {"measurement": "Log Reduction", "setting": "Example 2 trial T5, sampling point 2, ozone 25 ppm, After initial flow through static mixer, pH 6.9, seconds", "value": "4-5 log"}, {"measurement": "bioburden", "setting": "Example 3 another trial, initial bioburden 8.8×10^5 CFU/g, sampling point 2, seconds after ozone injection", "value": "7.0×10^1 CFU/g"}, {"measurement": "reduction of initial bioburden", "setting": "Example 3 conclusion, 10^6 to 10^1 CFU/g", "value": 5, "unit": "log"}, {"measurement": "bioburden", "setting": "Example 3 first trial, initial bioburden 3.6×10^6 CFU/g, ozone 5 ppm, after 40 minutes recirculation", "value": "1.7×10^4 CFU/g"}, {"measurement": "bioburden", "setting": "Example 3 first trial, initial bioburden 3.6×10^6 CFU/g, ozone 5 ppm, sampling point 2", "value": "9.1×10^1 CFU/g"}, {"measurement": "bioburden", "setting": "Example 3 third trial, sampling point 1, after ozone treatment and 40 minutes recirculation (mixed with untreated slurry)", "value": "8.8×10^5 CFU/g"}, {"measurement": "bioburden", "setting": "Example 3 third trial, sampling point 2, a few seconds after ozone injection", "value": "less than 10 CFU/g"}]}]}
